# According to US6916806B2, “Medicinal composition containing 1,3-thiazine derivative” (priority 2001, dated 2005):
# Experiments:
# [1] = molecular target: T1, human CB2 receptor (CB2R) (Homo sapiens, UniProt P34972); assay: Human CB2 receptor (CB2R) binding inhibition, [3H]CP55940, membranes of CB2R-expressing CHO cells
# T1 construct: The coding region of human CB2R cDNA (Munro etc, Nature, 1993, 365, 61-65) was inserted; expressed in transfected cells
# Description: (§1) The coding region of human CB2R cDNA (Munro etc, Nature, 1993, 365, 61-65) was inserted into the mammalian expression vector, pSVL SV40 Late Promoter Expression Vector (Amersham Pharmacia Biotech Inc.). The prepared vector was transfected into Chinese Hamster Ovary (CHO) cells with LipofectAMINE reagent (Gibco BRL) according to the manufacture's protocol, and the stable CB2R-expressing clones were selected.
# (§2) The crude membrane fractions were prepared from the CB2R-expressing CHO cells. Receptor binding assay was performed by incubating the membranes with each test compound and [^3H]CP55940 (at a final concentration of 0.5 nM: NEN Life Science Products) in the assay buffer (50 mM Tris-HCl, 1 mM EDTA, 3 mM MgCl2, pH 7.4) containing 0.5% bovine serum albumin (BSA) for 2 h at 25° C. The incubation mixture was filtered through 1% polyethylenimine-treated GF/C glass filter and washed with 50 mM Tris-HCl (pH 7.4) containing 0.1% BSA. The radioactivity was then counted with a liquid scintillation counter.
# (§3) For the receptor binding assay of human CB1 receptor (CB1R), the stable CB1R-expressing CHO cells were prepared as described above, and the binding assay was performed using their membrane fractions. As a consequence of these studies, the Ki values of each test compound for both cannabinoid receptors were determined, which were presented in Table.
# [2] = molecular target: T2, human CB1 receptor (CB1R) (Homo sapiens, UniProt P21554); assay: Receptor binding assay of human CB1 receptor (CB1R), membranes of CB1R-expressing CHO cells
# T2 construct: expressed in transfected cells
# T2 sequence (P21554 whole entry): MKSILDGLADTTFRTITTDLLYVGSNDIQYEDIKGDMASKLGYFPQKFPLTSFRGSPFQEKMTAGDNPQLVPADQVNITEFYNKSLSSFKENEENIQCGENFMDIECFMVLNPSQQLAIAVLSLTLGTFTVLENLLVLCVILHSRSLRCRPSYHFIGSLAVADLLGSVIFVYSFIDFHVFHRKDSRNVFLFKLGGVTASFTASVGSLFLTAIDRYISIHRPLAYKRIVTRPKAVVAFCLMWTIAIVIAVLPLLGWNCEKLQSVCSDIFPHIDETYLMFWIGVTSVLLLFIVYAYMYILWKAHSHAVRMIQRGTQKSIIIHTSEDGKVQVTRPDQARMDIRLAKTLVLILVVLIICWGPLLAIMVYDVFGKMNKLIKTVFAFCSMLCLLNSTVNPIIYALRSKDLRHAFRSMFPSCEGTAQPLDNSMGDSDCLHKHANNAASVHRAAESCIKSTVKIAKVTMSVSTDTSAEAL
# Description: as §1, §2, §3
# [3] = molecular target: T3, human CB2R (Homo sapiens, UniProt P34972); assay: CB2R-mediated suppression of forskolin-stimulated cAMP synthesis in CHO cells expressing human CB2R; assay type: cell-based
# T3 construct: The coding region of human CB2R cDNA (Munro etc, Nature, 1993, 365, 61-65) was inserted; expressed in transfected cells
# T3 sequence (P34972 whole entry): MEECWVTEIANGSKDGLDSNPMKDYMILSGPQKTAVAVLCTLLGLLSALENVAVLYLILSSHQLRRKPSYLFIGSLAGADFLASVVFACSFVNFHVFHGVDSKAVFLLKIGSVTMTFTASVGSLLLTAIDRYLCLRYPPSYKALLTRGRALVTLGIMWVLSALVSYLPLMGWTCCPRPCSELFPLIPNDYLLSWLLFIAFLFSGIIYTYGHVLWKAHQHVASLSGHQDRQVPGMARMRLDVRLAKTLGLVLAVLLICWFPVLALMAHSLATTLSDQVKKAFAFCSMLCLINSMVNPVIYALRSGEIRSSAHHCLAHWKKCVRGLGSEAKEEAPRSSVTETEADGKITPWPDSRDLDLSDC
# Description: The CHO cells expressing human CB2R were incubated with test compounds for 15 min. After the incubation, forskolin (final concentration of 4 μM, Sigma) was added and the cells were incubated for 20 min at 37° C. The reaction was stopped by the addition of 1N HCl and the amount of cAMP in the cell supernatant was measured using an EIA kit (Amersham Pharmacia Biotech) according to the manufacture's protocol.
# The antagonistic activity of each compound was also evaluated in this assay.
# T1 sequence (P34972 whole entry): as above
Compound,Ki [1] [nM],melting point [°C],Ki [2] [nM],IC50 [3] [nM]
CC(C)OC(=O)CSC(=S)N1CC(C)(C)CSC1=Nc1ccccc1C(C)C [Compound I-13],6,95 to 96,–,–
COc1ccccc1N=C1SCC2(CCCC2)CN1C(=S)SCC(=O)OC(C)(C)C [Compound I-80],2.2,–,> 5000,–
CSC(=S)N1CC2(CCOCC2)CSC1=Nc1ccccc1C(C)C [Compound I-93],3,127 to 128,1540,0.6
CCC1(CC)CSC(=Nc2ccccc2C(C)C)N(C(=S)SCC(=O)OC(C)(C)C)C1 [Compound I-42],0.3,–,> 5000,–
C=CCSC(=S)N1CC2(CCCC2)CSC1=Nc1ccccc1C(C)C [Compound I-74],1.2,–,704,1.6
CC(C)c1ccccc1N=C1SCC(C)(C)CN1C(=S)SCC(=O)OC(C)(C)C [Compound I-14],2,–,> 5000,–
C=CCSC(=S)N1CC2(CCCCC2)CSC1=Nc1ccc(CC)cc1 [Compound I-88],–,98 to 100,–,–
CC=CCSC(=S)N1CC(CC)(CC)CSC1=Nc1ccccc1C(C)C [Compound I-44],1.1,–,321,–
CCC1(CC)CSC(=Nc2ccccc2C(C)C)N(C(=S)SCC=C(C)C)C1 [Compound I-45],1.2,–,386,–
C=CCSC(=S)N1CC(CC)(CC)CSC1=Nc1ccccc1C(C)C [Compound I-39],2,–,906,13.7
CCC1(CC)CSC(=Nc2ccccc2C(C)C)N(C(=S)SCC(=O)OC(C)C)C1 [Compound I-41],1,–,–,–
C=CCSC(=S)N1CC2(CCOCC2)CSC1=Nc1ccccc1C(C)C [Compound I-92],6,73.5 to 75,1310,< 0.2
C=CCCSC(=S)N1CC(CC)(CC)CSC1=Nc1ccccc1C(C)C [Compound I-46],2,–,3230,5.4
CCOC(=O)CSC(=S)N1CC(CC)(CC)CSC1=Nc1ccccc1C(C)C [Compound I-40],0.5,–,–,–
Cc1cc(CSC(=S)N2CC3(CCCC3)CSC2=Nc2ccccc2C(C)C)on1 [Compound I-78],–,–,1020,–
C=CCSC(=S)N1CC(CC)(CC)CSC1=Nc1ccccc1C(C)CC (stereo not drawn) [Compound I-49],2.9,–,1120,2.2
